Data taken from ChEMBL document CHEMBL5241112, “Insights into the recent progress in the medicinal chemistry of pyranopyrimidine analogs” (RSC Med Chem, 2022).
Converted amounts (≈) assume the structure as drawn.

Assays:
Penicillium chrysogenum = assay: Antifungal activity against Penicillium chrysogenum assessed as diameter of inhibition zone at 1 mg/ml incubated for 72 to 91 hrs by agar disk diffusion method; assay type: functional; settings: time 72-91 hrs, read-out: DIZ
Klebsiella pneumoniae [1] = assay: Antimicrobial activity against Klebsiella pneumoniae assessed as diameter of inhibition zone at 1 mg/ml incubated for 48 hrs by agar disk diffusion method; assay type: functional; settings: read-out: DIZ
Pseudomonas aeruginosa [2] = assay: Antimicrobial activity against Pseudomonas aeruginosa assessed as diameter of inhibition zone at 1 mg/ml incubated for 48 hrs by agar disk diffusion method; assay type: functional; settings: read-out: DIZ
Staphylococcus aureus [3] = assay: Antimicrobial activity against Staphylococcus aureus assessed as diameter of inhibition zone at 1 mg/ml incubated for 48 hrs by agar disk diffusion method; assay type: functional; settings: read-out: DIZ
Aspergillus niger [4] = assay: Antifungal activity against Aspergillus niger assessed as diameter of inhibition zone at 1 mg/ml incubated for 72 to 91 hrs by agar disk diffusion method; assay type: functional; settings: time 72-91 hrs, read-out: DIZ
Bacillus cereus = assay: Antimicrobial activity against Bacillus cereus assessed as diameter of inhibition zone at 1 mg/ml incubated for 48 hrs by agar disk diffusion method; assay type: functional; settings: read-out: DIZ
Escherichia coli [5] = assay: Antimicrobial activity against Escherichia coli assessed as diameter of inhibition zone at 1 mg/ml incubated for 48 hrs by agar disk diffusion method; assay type: functional; settings: read-out: DIZ
Staphylococcus aureus [6] = assay: Antibacterial activity against Staphylococcus aureus MTCC 96 assessed as bacterial growth inhibition incubated for 24 hrs by broth microdilution method; assay type: functional
Staphylococcus aureus [7] = assay: Antibacterial activity against Staphylococcus aureus assessed as bacterial growth inhibition by broth microdilution method; assay type: functional
Candida albicans [8] = assay: Antifungal activity against Candida albicans assessed as fungal growth inhibition by broth microdilution method; assay type: functional
Aspergillus flavus [9] = assay: Antifungal activity against Aspergillus flavus assessed as fungal growth inhibition by broth microdilution method; assay type: functional
Escherichia coli [10] = assay: Antibacterial activity against Escherichia coli assessed as bacterial growth inhibition by broth microdilution method; assay type: functional
Klebsiella pneumoniae [11] = assay: Antibacterial activity against Klebsiella pneumoniae assessed as bacterial growth inhibition by broth microdilution method; assay type: functional
Pseudomonas aeruginosa [12] = assay: Antibacterial activity against Pseudomonas aeruginosa assessed as bacterial growth inhibition by broth microdilution method; assay type: functional
Staphylococcus aureus [13] = assay: Antibacterial activity against Staphylococcus aureus MLS-16 MTCC 2940 assessed as bacterial growth inhibition incubated for 24 hrs by broth microdilution method; assay type: functional
Salmonella typhimurium = assay: Antibacterial activity against Salmonella typhimurium assessed as diameter of inhibition zone; assay type: functional, Salmonella enterica subsp. enterica serovar Typhimurium
Aspergillus flavus [14] = assay: Antifungal activity against Aspergillus flavus assessed as inhibition of fungal growth; assay type: functional
Staphylococcus aureus [15] = assay: Antibacterial activity against Staphylococcus aureus assessed as diameter of inhibition zone; assay type: functional
Candida albicans [16] = assay: Antifungal activity against Candida albicans assessed as inhibition of fungal growth; assay type: functional
Urease = Urease (Canavalia ensiformis, UniProt P07374); assay: Inhibition of jack bean urease by phenol red method
Bacillus subtilis = assay: Antibacterial activity against Bacillus subtilis assessed as diameter of inhibition zone; assay type: functional
Aspergillus niger [17] = assay: Antifungal activity against Aspergillus niger assessed as inhibition of fungal growth; assay type: functional
Escherichia coli [18] = assay: Antibacterial activity against Escherichia coli assessed as diameter of inhibition zone; assay type: functional
[19] = tested on: Mycobacterium tuberculosis; assay: Antitubercular activity against Mycobacterium tuberculosis H37Rv assessed as bacterial growth inhibition at 100 ug/ml; assay type: functional
[20] = tested on: Mycobacterium tuberculosis; assay: Antitubercular activity against Mycobacterium tuberculosis H37Rv assessed as bacterial growth inhibition at 250 ug/ml; assay type: functional

Urease, sequence (P07374 whole entry): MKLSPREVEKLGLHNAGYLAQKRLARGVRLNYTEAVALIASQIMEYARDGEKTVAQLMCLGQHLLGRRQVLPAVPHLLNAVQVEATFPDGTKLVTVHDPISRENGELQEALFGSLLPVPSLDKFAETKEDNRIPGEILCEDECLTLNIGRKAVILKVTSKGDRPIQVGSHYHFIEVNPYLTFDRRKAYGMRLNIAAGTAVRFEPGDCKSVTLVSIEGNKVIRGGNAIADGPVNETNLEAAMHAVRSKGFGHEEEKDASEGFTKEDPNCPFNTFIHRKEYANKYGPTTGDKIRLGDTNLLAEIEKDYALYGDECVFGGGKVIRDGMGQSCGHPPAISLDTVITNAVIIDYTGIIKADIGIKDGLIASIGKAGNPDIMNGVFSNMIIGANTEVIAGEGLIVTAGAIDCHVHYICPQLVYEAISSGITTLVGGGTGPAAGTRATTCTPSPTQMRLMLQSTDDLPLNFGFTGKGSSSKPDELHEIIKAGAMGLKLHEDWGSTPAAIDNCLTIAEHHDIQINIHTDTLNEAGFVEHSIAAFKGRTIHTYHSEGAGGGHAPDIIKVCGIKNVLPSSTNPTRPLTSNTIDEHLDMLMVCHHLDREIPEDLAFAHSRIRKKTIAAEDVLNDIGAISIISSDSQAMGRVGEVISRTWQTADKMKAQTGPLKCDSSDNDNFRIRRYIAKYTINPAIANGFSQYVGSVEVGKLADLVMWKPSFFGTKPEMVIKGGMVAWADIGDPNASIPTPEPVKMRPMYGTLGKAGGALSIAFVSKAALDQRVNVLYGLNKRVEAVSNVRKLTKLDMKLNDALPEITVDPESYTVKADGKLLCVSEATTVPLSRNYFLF

Structure (SMILES): COC(=O)C1=C(N)Oc2[nH]c(=S)[nH]c(=O)c2C1c1ccc(C)cc1 (configuration not stated)
- zone of inhibition at 1000 µg/mL (Penicillium chrysogenum): 23 mm
- zone of inhibition at 1000 µg/mL (Klebsiella pneumoniae [1]): 19 mm
- zone of inhibition at 1000 µg/mL (Pseudomonas aeruginosa [2]): 21 mm
- zone of inhibition at 1000 µg/mL (Staphylococcus aureus [3]): 15 mm
- zone of inhibition at 1000 µg/mL (Aspergillus niger [4]): 23 mm
- zone of inhibition at 1000 µg/mL (Bacillus cereus): 12 mm
- zone of inhibition at 1000 µg/mL (Escherichia coli [5]): 16 mm

Structure (SMILES): COc1ccc(C2c3c(Nc4ccccc4)ncnc3Oc3cc(C)oc(=O)c32)cc1 (configuration not stated)
- MIC (Staphylococcus aureus [6]): 7.8 µg/mL (≈ 18.9 µM)

Structure (SMILES): CCO/C=N/C1=C(C#N)C(c2cc(OC)ccc2OC)c2c(n(C)c(=O)n(C)c2=O)O1 (configuration not stated)
- MIC (Staphylococcus aureus [7]): 6.25 µg/mL (≈ 14.7 µM)
- MIC (Candida albicans [8]): 3.12 µg/mL (≈ 7.32 µM)
- MIC (Aspergillus flavus [9]): 3.12 µg/mL (≈ 7.32 µM)
- MIC (Escherichia coli [10]): 6.25 µg/mL (≈ 14.7 µM)
- MIC (Klebsiella pneumoniae [11]): 6.25 µg/mL (≈ 14.7 µM)
- MIC (Pseudomonas aeruginosa [12]): 6.25 µg/mL (≈ 14.7 µM)

Structure (SMILES): OC(Cn1cncn1)(Cn1cncn1)c1ccc(F)cc1F [FLUCONAZOLE]
- MIC (Candida albicans [8]): 1.56 µg/mL (≈ 5.09 µM)
- MIC (Aspergillus flavus [9]): 1.56 µg/mL (≈ 5.09 µM)

Structure (SMILES): Cc1cc2c(c(=O)o1)C(c1ccccc1)c1c(Nc3ccc(Cl)cc3)ncnc1O2 (configuration not stated)
- MIC (Staphylococcus aureus [13]): 15.6 µg/mL (≈ 37.3 µM)

Structure (SMILES): N#CC1=C(N)Oc2[nH]c(=O)[nH]c(=O)c2C1c1ccc(Cl)cc1 (configuration not stated)
- diameter of the inhibition zone (DIZ) (Salmonella typhimurium): 20 mm
- MIC (Aspergillus flavus [14]): 150 µg/mL (≈ 474 µM)
- diameter of the inhibition zone (DIZ) (Staphylococcus aureus [15]): 18 mm
- MIC (Candida albicans [16]): 125 µg/mL (≈ 395 µM)
- IC50 (Urease): 49.7 µM
- diameter of the inhibition zone (DIZ) (Bacillus subtilis): 16 mm
- MIC (Aspergillus niger [17]): 162 µg/mL (≈ 513 µM)
- diameter of the inhibition zone (DIZ) (Escherichia coli [18]): 16 mm

Structure (SMILES): CCO/C=N/C1=C(C#N)C(c2ccc(Cl)cc2)c2c(n(C)c(=O)n(C)c2=O)O1 (configuration not stated)
- MIC (Staphylococcus aureus [7]): 6.25 µg/mL (≈ 15.6 µM)
- MIC (Candida albicans [8]): 3.12 µg/mL (≈ 7.78 µM)
- MIC (Aspergillus flavus [9]): 3.12 µg/mL (≈ 7.78 µM)
- MIC (Escherichia coli [10]): 6.25 µg/mL (≈ 15.6 µM)
- MIC (Klebsiella pneumoniae [11]): 6.25 µg/mL (≈ 15.6 µM)
- MIC (Pseudomonas aeruginosa [12]): 6.25 µg/mL (≈ 15.6 µM)

Structure (SMILES): COC(=O)C1=C(N)Oc2[nH]c(=S)[nH]c(=O)c2C1c1ccc(O)cc1 (configuration not stated)
- zone of inhibition at 1000 µg/mL (Penicillium chrysogenum): 23 mm
- zone of inhibition at 1000 µg/mL (Klebsiella pneumoniae [1]): 22 mm
- zone of inhibition at 1000 µg/mL (Pseudomonas aeruginosa [2]): 18 mm
- zone of inhibition at 1000 µg/mL (Staphylococcus aureus [3]): 21 mm
- zone of inhibition at 1000 µg/mL (Aspergillus niger [4]): 23 mm
- zone of inhibition at 1000 µg/mL (Bacillus cereus): 18 mm
- zone of inhibition at 1000 µg/mL (Escherichia coli [5]): 21 mm

Structure (SMILES): CO[C@H]1/C=C/O[C@@]2(C)Oc3c(C)c(O)c4c(O)c(c(/C=N/N5CCN(C)CC5)c(O)c4c3C2=O)NC(=O)/C(C)=C\C=C\[C@H](C)[C@H](O)[C@@H](C)[C@@H](O)[C@@H](C)[C@H](OC(C)=O)[C@@H]1C [RIFAMPIN]
- inhibition at 100 µg/mL [19]: 98%
- inhibition at 250 µg/mL [20]: 98%

Structure (SMILES): CCC1C(C#N)=C(N)Oc2[nH]c(=O)[nH]c(=O)c21 (configuration not stated)
- MIC (Aspergillus flavus [14]): 150 µg/mL (≈ 640 µM)
- MIC (Candida albicans [16]): 125 µg/mL (≈ 534 µM)
- MIC (Aspergillus niger [17]): 162 µg/mL (≈ 694 µM)

Structure (SMILES): COC(=O)C1=C(N)Oc2[nH]c(=S)[nH]c(=O)c2C1c1ccc(OC)c(OC)c1 (configuration not stated)
- zone of inhibition at 1000 µg/mL (Penicillium chrysogenum): 12 mm
- zone of inhibition at 1000 µg/mL (Klebsiella pneumoniae [1]): 14 mm
- zone of inhibition at 1000 µg/mL (Pseudomonas aeruginosa [2]): 12 mm
- zone of inhibition at 1000 µg/mL (Staphylococcus aureus [3]): 13 mm
- zone of inhibition at 1000 µg/mL (Aspergillus niger [4]): 0 mm
- zone of inhibition at 1000 µg/mL (Bacillus cereus): 15 mm
- zone of inhibition at 1000 µg/mL (Escherichia coli [5]): 16 mm

Structure (SMILES): CCO/C=N/C1=C(C#N)C(c2cccc(OC)c2OC)c2c(n(C)c(=O)n(C)c2=O)O1 (configuration not stated)
- MIC (Staphylococcus aureus [7]): 6.25 µg/mL (≈ 14.7 µM)
- MIC (Candida albicans [8]): 6.25 µg/mL (≈ 14.7 µM)
- MIC (Aspergillus flavus [9]): 3.12 µg/mL (≈ 7.32 µM)
- MIC (Escherichia coli [10]): 6.25 µg/mL (≈ 14.7 µM)
- MIC (Klebsiella pneumoniae [11]): 6.25 µg/mL (≈ 14.7 µM)
- MIC (Pseudomonas aeruginosa [12]): 6.25 µg/mL (≈ 14.7 µM)

Structure (SMILES): Cc1cc2c(c(=O)o1)C(c1ccc(F)cc1)c1c(Nc3ccccc3)ncnc1O2 (configuration not stated)
- MIC (Staphylococcus aureus [6]): 7.8 µg/mL (≈ 19.4 µM)

Structure (SMILES): COC(=O)C1=C(N)Oc2[nH]c(=S)[nH]c(=O)c2C1c1ccccc1Cl (configuration not stated)
- zone of inhibition at 1000 µg/mL (Penicillium chrysogenum): 0 mm
- zone of inhibition at 1000 µg/mL (Pseudomonas aeruginosa [2]): 4 mm
- zone of inhibition at 1000 µg/mL (Staphylococcus aureus [3]): 11 mm
- zone of inhibition at 1000 µg/mL (Aspergillus niger [4]): 0 mm
- zone of inhibition at 1000 µg/mL (Escherichia coli [5]): 9 mm

Structure (SMILES): CCO/C=N/C1=C(C#N)C(c2ccccc2F)c2c(n(C)c(=O)n(C)c2=O)O1 (configuration not stated)
- MIC (Staphylococcus aureus [7]): 6.25 µg/mL (≈ 16.3 µM)
- MIC (Candida albicans [8]): 6.25 µg/mL (≈ 16.3 µM)
- MIC (Aspergillus flavus [9]): 6.25 µg/mL (≈ 16.3 µM)
- MIC (Escherichia coli [10]): 6.25 µg/mL (≈ 16.3 µM)
- MIC (Klebsiella pneumoniae [11]): 6.25 µg/mL (≈ 16.3 µM)
- MIC (Pseudomonas aeruginosa [12]): 6.25 µg/mL (≈ 16.3 µM)

Structure (SMILES): CCO/C=N/C1=C(C#N)C(c2ccc(F)cc2)c2c(n(C)c(=O)n(C)c2=O)O1 (configuration not stated)
- MIC (Staphylococcus aureus [7]): 6.25 µg/mL (≈ 16.3 µM)
- MIC (Candida albicans [8]): 3.12 µg/mL (≈ 8.12 µM)
- MIC (Aspergillus flavus [9]): 3.12 µg/mL (≈ 8.12 µM)
- MIC (Escherichia coli [10]): 6.25 µg/mL (≈ 16.3 µM)
- MIC (Klebsiella pneumoniae [11]): 6.25 µg/mL (≈ 16.3 µM)
- MIC (Pseudomonas aeruginosa [12]): 6.25 µg/mL (≈ 16.3 µM)

Structure (SMILES): Cc1cc2c(c(=O)o1)C(c1ccccc1)c1c(Nc3ccccc3)ncnc1O2 (configuration not stated)
- MIC (Staphylococcus aureus [13]): 15.6 µg/mL (≈ 40.7 µM)

Structure (SMILES): COC(=O)C1=C(N)Oc2[nH]c(=S)[nH]c(=O)c2C1c1ccc([N+](=O)[O-])cc1 (configuration not stated)
- zone of inhibition at 1000 µg/mL (Penicillium chrysogenum): 12 mm
- zone of inhibition at 1000 µg/mL (Klebsiella pneumoniae [1]): 17 mm
- zone of inhibition at 1000 µg/mL (Pseudomonas aeruginosa [2]): 20 mm
- zone of inhibition at 1000 µg/mL (Staphylococcus aureus [3]): 17 mm
- zone of inhibition at 1000 µg/mL (Aspergillus niger [4]): 23 mm
- zone of inhibition at 1000 µg/mL (Bacillus cereus): 21 mm
- zone of inhibition at 1000 µg/mL (Escherichia coli [5]): 17 mm
